Test results taken from patent publication US20250235533A1, “INJECTABLE PROLONGED-RELEASE HYDROGEL FORMULATIONS OF TOLL-LIKE RECEPTOR AGONISTS FOR INTRATUMORAL INJECTION TO INCREASE IMMUNOTHERAPY RESPONSE” (priority 2024, published 2025).

Tests used:
[1] = Solubility / encapsulation of immunoadjuvant in PLGA-PEG-PLGA micelles; assay type: physicochemical
Description: Typically, 1 g of PLGA-PEG-PLGA was dissolved in 4 ml 0.9% saline solution (Baxter, Deerfield, IL) to obtain a 25% weight/volume (w/v) concentration at 4° C. over 2 days and vortexed/stirred daily. Importantly, the normal saline cannot contain the preservative phenol, commonly found in preservative containing commercial saline solutions. After a homogeneous hydrogel solution was observed by stirring with a spatula, imiquimod was added at 24 mg to the batch, the dispersion was vortexed and allowed to dissolve at room temperature over 2 days. Some of the gels received Iopamidol as contrast agent at 100 mg mL^−1, which was left to disperse or dissolve over 1 day. The resulting Imigel or Imigel+Iopamidol was stored at room temperature, shielded from evaporation, and used within 1 week from full dissolution to prevent hydrolysis. (FIGS. 3A-3E).

CT-26 tumors = test: Dual tumor model survival study, CT-26; assay type: in vivo, balb/c mice; details: CT-26 model
Description: Per experimental arm 10-15 Balb c^−1 mice were injected with approximately 10^6 cells of CT-26 or EMT-6 cells, day 0 (FIG. 6) in bilateral flanks. Immunotherapy (anti-PD-1 (3.9 mg mL^−1), anti-CTLA-4 (2.2 mg mL^−1) co-immunotherapy was given intraperitoneally (Sigma-Aldrich) every 3 days from day 3-12. Mice with primary and contralateral tumors of at least 6 mm were chosen to be randomized to various treatment arms evaluating CPI with and without cryoablation, imiquimod drug-only injection, PLGA-PEG-PLGA only injection, or imigel (3:1) injection. The imigel, gel alone, or serial imiquimod suspensions were injected as 50 μL injections using a 26-gauge needle. For cryoablation, parameters included a 30 s freeze, followed by 2 min thaw, followed by a 30 s freeze with goal of approximately 50% tumoral freezing. When using cryoablation, the drug formulations were injected 5 min post final freeze, with a mild pause during injection to ensure no push back via the tract into the remaining viable tumor. Imiquimod alone was prepared as a suspension by 30 min of sonication at 1 mg mL^−1 in normal saline. Injections for imiquimod alone were done as a total 50 μL 1 mg mL^−1 injections once per day for six total doses. Specifically, Imigel delivered a total of 300 μg in one injection in two 25 μL injection depots within the tumor at the same injection session for only one session. […]

[2] = tested on: CD8+ T cells in CT-26 tumors; test: Intratumoral flow cytometry, CT-26 model; assay type: in vivo, mice; details: compared to CPI only
Description: Additional groups of 4 mice were injected with CT-26 and treated as above. 6 days post local intervention, mice were euthanized, and ipsilateral and contralateral tumors excised. In all cases of this example, tumor samples were minced and then incubated in a collagenase solution (1 mg mL^−1 in RPMI—1640) for approximately 45 min at 37° C. Tumors were processed into a single cell suspension using a 70 μm cell strainer.
For flow cytometry, using the cells harvested as above, cell viability was assessed by trypan blue staining, and 1×10^6 viable cells were stained for flow cytometry analysis. Cells were washed with PBS and stained with a 1:1000 solution of ZOMBIE Aqua (from […], Biolegend) and incubated on ice for 15 min. […] Cells were resuspended in cell staining buffer, and the samples were analyzed on an Aurora (Cytek Biotechnology). […] Gating for individual markers was determined by fluorescent minus one (FMO) control panels and unstained controls. […]

[3] = cited from earlier work
In vitro release studies = assay type: physicochemical
Description: Drug release kinetics of imiquimod from various […] formulations were studied by placing aliquots of drug-loaded hydrogel into 50 mL conical tubes at 100 rpm at 37° C., releasing drug into DPBS. 50 μL of […] were added to the bottom of 50 mL conical Falcon tubes or in a dialysis tubing (D-tube Dialyzer Maxi, MWCO 3.5 kDa) at room temperature and brought to gel state by incubating at 37° C. for 30 min while DPBS as receiving fluid was preheated at the same temperature. After […] solidified, 50 mL DPBS (pH 7.4), Lactated […]), or Acetate Buffer (pH 5, 0.03 m Acetic acid, and 0.07 m Sodium Acetate in DI water) were added slowly to the conical tubes. These containers were then incubated at 37° C. under shaking at 100 rpm. 400 μL samples were taken from the receiving fluid with a 1 mL syringe through 0.2 μm filters (PALL super membrane low protein binding non-pyrogenic) to avoid accidental removal of gel. Concentration of imiquimod in the samples was assessed eluting the samples on an Agilent 1100 high-performance liquid chromatography (HPLC) with UV detector at 242 nm over an Eclipse XD8-C18 column (150×4.6 mm, 3.5 μm pore size) with an acetonitrile/water gradient from 5/95 to 95/5 over 6 min at 1 mL mi-1 n. […] Concentrations were calculated from UV signals using a calibration curve of known concentration imiquimod standards in DMSO/Acetonitrile.

With `CC(C)Cn1cnc2c(N)nc3ccccc3c21` [imiquimod] as the compound, how does the solubility at 2 days ([1]; PLGA1.5k-PEG1.5k-PLGA1.5k micelles (hydrogel solution), aqueous with cosolvent or surfactant or cyclodextrin, thermodynamic from solid, in PLGA1.5k-PEG1.5k-PLGA1.5k micelles, read-out: concentration uniformly solubilized) read?
Its solubility at 2 days is ~6000 µg/mL.

What about the “increase of aqueous solubility” value ([1]; encapsulated in micellar structure of PLGA-PEG-PLGA) of the same compound?
Its value is “approximately 2000 fold”.

What about the 90-day survival (CT-26 tumors; serial imiquimod (6 daily injections) with CPI and cryoablation) of the same compound?
Its 90-day survival is 46.7%.

What about the 90-day survival (CT-26 tumors; serial imiquimod (6 daily injections) with CPI, no cryoablation) of the same compound?
The 90-day survival was 57%.

What about the “percentage of activated CD8+ T cells (dual CD44+PD1+ among CD8+ T-cells)” value [2] of the same compound?
The value was “significant increase”.

What about the solubility in saline [3] of the same compound?
The solubility in saline was “around 0.002 mg mL^−1”.

For `CCCN(CCC)C(=O)C1=Cc2ccc(-c3ccc(C(=O)N4CCCC4)cc3)cc2N=C(N)C1` [motolimod], which encapsulation ([1]; motolimod in PLGA-PEG-PLGA injectable composition) is on record?
Its encapsulation is “around 6 mg/mL”.

And the “release profile of motolimod” value (In vitro release studies; into PBS, PLGA-PEG-PLGA 1600-1500-1600 and 1500-1500-1500)?
The value was “relatively extended”.

With `O=S(=O)([O-])[O-].[Ba+2]` [barium sulfate] as the compound, how does the “effect on release profile of imiquimod from injectable composition” value (In vitro release studies; phosphate buffer solution at 37 degrees C) read?
Its value is “does not significantly change the release profile of imiquimod”.
